What all share (assay type): cell-based
For one assay, the system named is Wnt activity. Put plainly: Wnt activity screening assay, Sp5-Luc reporter gene in SW480 cells. The conditions noted are these: Homo sapiens; for inhibition at 10 µM: SW480, read-out: percent inhibition at 10 μM; for EC50: Sp5-Luc reporter, SW480 cells, overnight incubation. An excerpt: The screening assay for Wnt activity is described as follows. Reporter cell lines can be generated by stably transducing cancer cell lines (e.g., colon cancer) or primary cells (e.g., IEC-6 intestinal cells) with a lentiviral construct that includes a Wnt-responsive promoter driving expression of the firefly luciferase gene.
SW480 colon carcinoma cells were transduced with a lentiviral vector expressing luciferase with a human Sp5 promoter consisting of a sequence of eight TCF/LEF binding sites. SW480 cells stably expressing the Sp5-Luc reporter gene and a hygromycin resistance gene were selected by treatment with 150 μg/mL of hygromycin for 7 days. These stably transduced SW480 cells were expanded in cell culture and used for all further screening activities. […] For Sp5-Luc reporter gene assays, the cells were plated at 4,000 cells/well in 384-well plates with medium containing 1% fetal bovine serum and incubated overnight at 37° C. and 5% CO2. Following incubation, 20 μl of BrightGlo luminescence reagent (Promega) was added to each well of the 384-well assay plates. The plates were placed on an orbital shaker for 2 min and then luminescence was quantified using the Envision (Perkin Elmer) plate reader. Readings were normalized to DMSO only treated cells, and normalized activities were utilized for EC50 calculations using the dose-response log (inhibitor) vs. response -variable slope (four parameters) nonlinear regression feature available in GraphPad Prism 5.0 (or Dotmatics).
(Reporter assays use an easily measured gene product as a stand-in for the process of interest.)

The test system of another assay is SW480 colon cancer cells. Description: Cell viability assay (CellTiter-Blue) in SW480 colon cancer cells. As to conditions: Homo sapiens; for EC50: 96 h, SW480 cell viability, four days, CellTiter-Blue; for inhibition at 10 µM: SW480, read-out: percent inhibition at 10 μM. The procedure:
Representative compounds were screened using the following assay procedure to assess the effect on cell viability as described below.
Approximately 2×10^3 SW480 colon cancer cells were seeded into each well and allowed to incubate in the presence or absence of compound for four days at 37° C./5% CO2. Eight replicates of DMSO-treated cells served as controls and cells treated with compound were performed in duplicate.
After incubation, 20 μL of CellTiter-Blue (Promega) was added to each well allowed to incubate for approximately 3 hours. This reagent was a buffered solution which contains resazurin, metabolically active cells were able to reduce rezarurin (blue) into resorufin (pink) which was highly fluorescent. This measured fluorescence was used as a readout for cell viability.
On the technique in general: Resazurin is reduced to fluorescent resorufin, in cell work by metabolically active cells.

The subject of assay [1] is primary human fibroblasts derived from IPF patients (LL29 cells). Put plainly: Inhibition of the fibrotic process: αSMA staining in TGF-β1 treated LL29 fibroblasts. The conditions noted are these: Fibroblast; for EC50: 96 h, LL29 cells, TGF-β1 20 ng/mL, 4 days, % αSMA positive cells; for inhibition at 10 µM: read-out: percent inhibition at 10 μM. Here is the method: Representative compounds were screened using primary human fibroblasts (derived from IPF patients) treated with TGF-β1 to determine their ability to inhibit the fibrotic process.
LL29 cells are plated at 1,500 cells/well in 80 μL/well F12 medium supplemented with 1% Fetal Bovine Serum. […] Wells treated with TGF-β1 and containing DMSO were used as controls. […] Following incubation for 4 days, SYTOX green nucleic acid stain (Life Technologies [Thermo Fisher Scientific]) was added to the wells at a final concentration of 1 μM and incubated at room temperature for 30 min.

For another assay, the system named is IL-6. Description: IL-6 inhibition in LPS-stimulated THP-1 cells (HTRF). The conditions noted are these: Homo sapiens; for inhibition at 10 µM: THP-1, read-out: percent inhibition at 10 μM; for EC50: THP-1 cells, LPS 500 ng/mL, 22 hours, IL6 HTRF. Here is the method:
THP-1 cells were cultured in basal media with 1% FBS for 24 hours before the start of the assay. […] THP-1 cells were plated at 5000 cells/well in the 384-well plates and incubated at 37° C. for 2 h. 500 ng/mL of LPS was added after 2 hours and cells were incubated for another 22 hours at 37° C. Plates were spun in a centrifuge for 1 minute at […] and a mixture of anti-IL6 XL665, and anti-IL6 Cryptate diluted in reconstitution buffer (Cisbio Inc.) was added to each well. Following incubation for 3 hrs at room temperature, Homogeneous Time-Resolved Fluorescence (HTRF) was measured using the Envision (Perkin Elmer) at 665 nm and […]. The ratio of fluorescence at 665 nm to 620 nm was used as a readout for IL6 quantification. All samples were processed in duplicate. Readings were normalized to DMSO treated cells and normalized activities were utilized for EC50 calculations using the dose-response log (inhibitor) vs. response -variable slope (four parameters) nonlinear regression feature available in GraphPad Prism 5.0 (or Dotmatics).
(In general: In TR-FRET formats the signal depends on donor and acceptor labels being close together.)

For `CCCCC(=O)Nc1cncc(-c2cc3c(-c4cc5c(-c6ccncc6)cncc5[nH]4)n[nH]c3cn2)c1` [Compound 131, N-(5-(3-(4-(Pyridin-4-yl)-1H-pyrrolo[2,3-c]pyridin-2-yl)-1H-pyrazolo[3,4-c]pyridin-5-yl)pyridin-3-yl)pentanamide], the inhibition (in general, the drop in the measured response relative to a control, in per cent) at 10 µM in the assay on Wnt activity came to 13.1%; in the assay with SW480 colon cancer cells, 17.8%; in assay [1], 8.3%; with IL-6, 20.6%. Moreover, the 50% effective concentration (EC50) (with Wnt activity; with SW480 colon cancer cells; in assay [1]; with IL-6) was > 10 µM in each case.
Consider `c1ncc(-c2cc3c(-c4cc5c(N6CCCCC6)cncc5[nH]4)n[nH]c3cn2)cc1OC1CCCCC1` [Compound 607, 5-(5-(Cyclohexyloxy)pyridin-3-yl)-3-(4-(piperidin-1-yl)-1H-pyrrolo[2,3-c]pyridin-2-yl)-1H-pyrazolo[3,4-c]pyridine], for which the concentration for a half-maximal effect (EC50) – broadly, the concentration that produces a half-maximal response – in the assay on Wnt activity amounted to 1.34 µM; with SW480 colon cancer cells it was 1.3 µM; in assay [1] it was 0.532 µM; with IL-6 it was 3.17 µM.
For `Cc1ccncc1-c1cc2c(-c3cc4c(-c5ccc(F)cc5)cncc4[nH]3)n[nH]c2cn1` [Compound 33, 3-(4-(4-Fluorophenyl)-1H-pyrrolo[2,3-c]pyridin-2-yl)-5-(4-methylpyridin-3-yl)-1H-pyrazolo[3,4-c]pyridine] the same measures were 1.84 µM, 1.09 µM, 0.333 µM and 4.58 µM.
On to `CC(C)Nc1cncc(-c2cc3c(-c4cc5c(-c6cccnc6)cncc5[nH]4)n[nH]c3cn2)c1` [Compound 96, N-Isopropyl-5-(3-(4-(pyridin-3-yl)-1H-pyrrolo[2,3-c]pyridin-2-yl)-1H-pyrazolo[3,4-c]pyridin-5-yl)pyridin-3-amine], for which the concentration giving a half-maximal response (EC50) in the assay on Wnt activity was 0.94 µM; with SW480 colon cancer cells, > 10 µM; in assay [1] it was 0.624 µM; in the assay on IL-6, 3.15 µM. Besides, in the assay with SW480 colon cancer cells, the inhibition at 10 µM was found to be 25.2%.
With `c1cncc(-c2cncc3[nH]c(-c4n[nH]c5cnc(C6CCNCC6)cc45)cc23)c1` [Compound 553, 5-(Piperidin-4-yl)-3-(4-(pyridin-3-yl)-1H-pyrrolo[2,3-c]pyridin-2-yl)-1H-pyrazolo[3,4-c]pyridine], the figures for the inhibition at 10 µM in the assay on Wnt activity, in the assay on SW480 colon cancer cells and in the assay on IL-6 were 8.3%, 11% and 18.1%, respectively. For the same compound, the EC50 in the assay with Wnt activity was > 10 µM; in the assay on SW480 colon cancer cells, > 10 µM; in assay [1], 1.19 µM; in the assay with IL-6, > 10 µM.
As to `Cn1cc(-c2cc3c(-c4cc5c(-c6cc(F)cc(CNS(C)(=O)=O)c6)cncc5[nH]4)n[nH]c3cn2)cn1` [Compound 764, N-(3-Fluoro-5-(2-(5-(1-methyl-1H-pyrazol-4-yl)-1H-pyrazolo[3,4-c]pyridin-3-yl)-1H-pyrrolo[2,3-c]pyridin-4-yl)benzyl)methanesulfonamide], the EC50 is 1.03 µM in the assay with Wnt activity, > 10 µM in the assay on SW480 colon cancer cells, 2.42 µM in assay [1] and > 10 µM in the assay on IL-6. Also, the inhibition at 10 µM stood at 9.3% in the assay with SW480 colon cancer cells and 20% in the assay on IL-6.
As for `CC(C)(C)CC(=O)Nc1cncc(-c2cc3c(-c4cc5c(-c6cc(F)cc(CNS(C)(=O)=O)c6)cncc5[nH]4)n[nH]c3cn2)c1` [Compound 492, N-(5-(3-(4-(3-Fluoro-5-(methylsulfonamidomethyl)phenyl)-1H-pyrrolo[2,3-c]pyridin-2-yl)-1H-pyrazolo[3,4-c]pyridin-5-yl)pyridin-3-yl)-3,3-dimethylbutanamide], the inhibition at 10 µM in the assay with Wnt activity came out at 14.6%; in the assay on SW480 colon cancer cells, 16.3%; in assay [1], 0%; with IL-6 it was 29%. For the same compound, the EC50 (in the assay on Wnt activity; in the assay with SW480 colon cancer cells; in assay [1]; in the assay on IL-6) was > 10 µM each time.
